Data: patent US10279022B2, “Peptides and combination of peptides for use in immunotherapy against various cancers” (immatics biotechnologies GmbH, priority 2015, dated 2019)

test system: HLA-A*24; experiment: MHC binding assay by UV-ligand exchange and beta2m ELISA (HLA-A*24); design: species or system human; details: peptide exchange yield, binding to HLA-A*24; UV-ligand exchange, beta2m ELISA
From the text: Candidate peptides for T cell based therapies according to the present invention were further tested for their MHC binding capacity (affinity). The individual peptide-MHC complexes were produced by UV-ligand exchange, where a UV-sensitive peptide is cleaved upon UV-irradiation, and exchanged with the peptide of interest as analyzed. Only peptide candidates that can effectively bind and stabilize the peptide-receptive MHC molecules prevent dissociation of the MHC complexes. To determine the yield of the exchange reaction, an ELISA was performed based on the detection of the light chain (β2m) of stabilized MHC complexes. The assay was performed as generally described in Rodenko et al. (Rodenko et al., 2006).
96 well MAXISorp plates (NUNC) were coated over night with 2 ug/ml streptavidin in PBS at room temperature, washed 4× and blocked for 1 h at 37° C. in 2% BSA containing blocking buffer. Refolded HLA-A*02:01/MLA-001 monomers served as standards, covering the range of 15-500 ng/ml. Peptide-MHC monomers of the UV-exchange reaction were diluted 100 fold in blocking buffer. Samples were incubated for 1 h at 37° C., washed four times, incubated with 2 ug/ml HRP conjugated anti-β2m for 1 h at 37° C., washed again and detected with TMB solution that is stopped with […]. Absorption was measured at 450 nm. Candidate peptides that show a high exchange yield (preferably higher than 50%, most preferred higher than 75%) are generally preferred for a generation and production of antibodies or fragments thereof, and/or T cell receptors or fragments thereof, as they show sufficient avidity to the MHC molecules and prevent dissociation of the MHC complexes.

Peptide exchange	Substance
++++ (> = 75% = ++++)	160 (VYTLDIPVL; listed as Homo sapiens) [compound 160]
++++ (> = 75% = ++++)	161 (IYLVSIPEL; listed as Homo sapiens) [compound 161]
++++ (> = 75% = ++++)	166 (YYVESGKLF; listed as Homo sapiens) [compound 166]
++++ (> = 75% = ++++)	168 (KYQDILETI; listed as Homo sapiens) [compound 168]
++++ (> = 75% = ++++)	172 (TYTTVPRVAF; listed as Homo sapiens) [compound 172]
++++ (> = 75% = ++++)	173 (IYSWILDHF; listed as Homo sapiens) [compound 173]
++++ (> = 75% = ++++)	175 (YYEVHKELF; listed as Homo sapiens) [compound 175]
++++ (> = 75% = ++++)	177 (VYPWLGALL; listed as Homo sapiens) [compound 177]
++++ (> = 75% = ++++)	179 (MYDSYWRQF; listed as Homo sapiens) [compound 179]
++++ (> = 75% = ++++)	181 (LYLDIINLF; listed as Homo sapiens) [compound 181]
++++ (> = 75% = ++++)	184 (VFQNFPLLF; listed as Homo sapiens) [compound 184]
++++ (> = 75% = ++++)	186 (IFPQFLYQF; listed as Homo sapiens) [compound 186]
++++ (> = 75% = ++++)	187 (TYLRDQHFL; listed as Homo sapiens) [compound 187]
++++ (> = 75% = ++++)	192 (SYALLTYMI; listed as Homo sapiens) [compound 192]
++++ (> = 75% = ++++)	193 (RFHPTPLLL; listed as Homo sapiens) [compound 193]
++++ (> = 75% = ++++)	195 (TYSVSFPMF; listed as Homo sapiens) [compound 195]
++++ (> = 75% = ++++)	202 (VYWDSAGAAHF; listed as Homo sapiens) [compound 202]

Peptide exchange	Substance
++++ (> = 75% = ++++)	210 (IYTMIYRNL; listed as Homo sapiens) [compound 210]
++++ (> = 75% = ++++)	211 (YYLEVGKTLI; listed as Homo sapiens) [compound 211]
++++ (> = 75% = ++++)	216 (QYSSVFKSL; listed as Homo sapiens) [compound 216]
++++ (> = 75% = ++++)	217 (FFPPTRQMGLLF; listed as Homo sapiens) [compound 217]
++++ (> = 75% = ++++)	227 (IFLDYEAGTLSF; listed as Homo sapiens) [compound 227]
++++ (> = 75% = ++++)	228 (KYTSWYVAL; listed as Homo sapiens) [compound 228]
++++ (> = 75% = ++++)	267 (KYMVYPQTF; listed as Homo sapiens) [compound 267]
++++ (> = 75% = ++++)	271 (LYHDIFSRL; listed as Homo sapiens) [compound 271]
++++ (> = 75% = ++++)	272 (QYLQDAYSF; listed as Homo sapiens) [compound 272]
++++ (> = 75% = ++++)	274 (AYLHSHALI; listed as Homo sapiens) [compound 274]
++++ (> = 75% = ++++)	276 (VYGFQWRHF; listed as Homo sapiens) [compound 276]
++++ (> = 75% = ++++)	277 (VYQGHTALL; listed as Homo sapiens) [compound 277]
++++ (> = 75% = ++++)	278 (RYISDQLFTNF; listed as Homo sapiens) [compound 278]
++++ (> = 75% = ++++)	280 (RYPDNLKHLYL; listed as Homo sapiens) [compound 280]
++++ (> = 75% = ++++)	282 (KFVDSTFYL; listed as Homo sapiens) [compound 282]
++++ (> = 75% = ++++)	289 (KYPVEWAKF; listed as Homo sapiens) [compound 289]

test system: CD8+ T cells; experiment: In vitro T-cell priming assay (aAPCs loaded with peptide/MHC and anti-CD28), pMHC multimer readout; format: cell-based, human; details: in vitro immunogenicity of HLA class I peptides; peptide specific pMHC multimer staining after three stimulation cycles
From the text: In order to obtain information regarding the immunogenicity of the TUMAPs of the present invention, the inventors performed investigations using an in vitro T-cell priming assay based on repeated stimulations of CD8+ T cells with artificial antigen presenting cells (aAPCs) loaded with peptide/MHC complexes and anti-CD28 antibody.
In order to perform in vitro stimulations by artificial antigen presenting cells loaded with peptide-MHC complex (pMHC) and anti-CD28 antibody, the inventors first isolated CD8+ T cells from fresh HLA-A*02 leukapheresis products via positive selection using CD8 microbeads (Miltenyi Biotec, Bergisch-Gladbach, Germany) of healthy donors obtained from the University clinics Mannheim, Germany, after informed consent.
PBMCs and isolated CD8+ lymphocytes were incubated in T-cell medium (TCM) until use consisting of RPMI-Glutamax (Invitrogen, Karlsruhe, Germany) supplemented with 10% heat inactivated human AB serum (PAN-Biotech, Aidenbach, Germany), 100 U/ml Penicillin/100 μg/ml Streptomycin (Cambrex, Cologne, Germany), 1 mM sodium pyruvate (CC Pro, Oberdorla, Germany), 20 μg/ml Gentamycin (Cambrex). 2.5 ng/ml IL7 (PromoCell, Heidelberg, Germany) and 10 U/ml IL-2 (Novartis Pharma, Nurnberg, Germany) were also added to the TCM at this step.
Generation of pMHC/anti-CD28 coated beads, T-cell stimulations and readout was performed in a highly defined in vitro system using four different pMHC molecules per stimulation condition and 8 different pMHC molecules per readout condition.
The purified co-stimulatory mouse IgG2a anti human CD28 Ab 9.3 (Jung et al., 1987) was chemically biotinylated using Sulfo-N-hydroxysuccinimidobiotin as recommended by the manufacturer (Perbio, Bonn, Germany). Beads used were 5.6 μm diameter streptavidin coated polystyrene particles (Bangs Laboratories, Illinois, USA).
pMHC used for positive and negative control stimulations were A*0201/MLA-001 (peptide […] (SEQ ID NO. 303) from modified Melan-A/MART-1) and A*0201/DDX5-001 ([…] from DDX5, SEQ ID NO. 304), respectively.
800.000 beads/200 μl were coated in 96-well plates in the presence of 4×12.5 ng different biotin-pMHC, washed and 600 ng biotin anti-CD28 were added subsequently in a volume of 200 μl. Stimulations were initiated in 96-well plates by co-incubating 1×10^6 CD8+ T cells with 2×10^5 washed coated beads in 200 μl TCM supplemented with 5 ng/ml IL-12 (PromoCell) for 3 days at 37° C. Half of the medium was then exchanged by fresh TCM supplemented with 80 U/ml IL-2 and incubating was continued for 4 days at 37° C. This stimulation cycle was performed for a total of three times. For the pMHC multimer readout using 8 different pMHC molecules per condition, a two-dimensional combinatorial coding approach was used as previously described (Andersen et al., 2012) with minor modifications encompassing coupling to 5 different fluorochromes. Finally, multimeric analyses were performed by staining the cells with Live/dead near IR dye (Invitrogen, Karlsruhe, Germany), CD8-FITC antibody clone SK1 (BD, Heidelberg, Germany) and fluorescent pMHC multimers. For analysis, a BD LSRII SORP cytometer equipped with appropriate lasers and filters was used. Peptide specific cells were calculated as percentage of total CD8+ cells. Evaluation of multimeric analysis was done using the FlowJo software (Tree Star, Oregon, USA). In vitro priming of specific multimer+CD8+ lymphocytes was detected by comparing to negative control stimulations.

Substance	Wells positive [%]
5 (GIVAHIQEV; listed as Homo sapiens) [compound 5]	+ (<20% = +)
18 (ILLDLTDNRL; listed as Homo sapiens) [compound 18]	+ (<20% = +)
23 (SLFSDEFKV; listed as Homo sapiens) [compound 23]	++++ (> = 70% = ++++)
26 (ALQEELTEL; listed as Homo sapiens) [compound 26]	+ (<20% = +)
29 (YLLDPSITL; listed as Homo sapiens) [compound 29]	+ (<20% = +)
31 (TITETTVEV; listed as Homo sapiens) [compound 31]	+ (<20% = +)
35 (FLLPFSTVYL; listed as Homo sapiens) [compound 35]	+ (<20% = +)
90 (FLQDLEQRL; listed as Homo sapiens) [compound 90]	+ (<20% = +)
141 (FLDKVLVAA; listed as Homo sapiens) [compound 141]	+ (<20% = +)
149 (ILNTHITEL; listed as Homo sapiens) [compound 149]	+ (<20% = +)
196 (LYIDRPLPYL; listed as Homo sapiens) [compound 196]	++++ (> = 70% = ++++)
197 (EYSLFPGQVVI; listed as Homo sapiens) [compound 197]	+ (<20% = +)
207 (AYVVFVSTL; listed as Homo sapiens) [compound 207]	+ (<20% = +)
218 (YYKSTSSAF; listed as Homo sapiens) [compound 218]	+ (<20% = +)
230 (KLQNIMMLL; listed as Homo sapiens) [compound 230]	++++ (> = 70% = ++++)
268 (QYLGQIQHI; listed as Homo sapiens) [compound 268]	+ (<20% = +)
269 (YFIDSTNLKTHF; listed as Homo sapiens) [compound 269]	+ (<20% = +)
285 (HYPPVQVLF; listed as Homo sapiens) [compound 285]	+ (<20% = +)

same assay, conditions: positive wells; HLA-A*02 and HLA-A*24 peptides, healthy donors

Substance	in vitro immunogenicity: Wells
291 (KLDETGNSL; listed as Homo sapiens) [compound 291]	+ (<20% = +)
292 (GMMTAILGV; listed as Homo sapiens) [compound 292]	+ (<20% = +)
